IC50 data for six compounds are collected here from BindingDB's records for doi:10.1016/j.bmcl.2016.04.067 (Peking University Health Science Center, 2016).

Test [1] in a line: Inhibition of caspase-like activity of 20S human proteasome assessed as Z-nLPnLD-AMC hydrolysis at using Promega proteasome-Glo-3 substrate incubated for 15 mins by luminescence assay.
The nature of test [2]: Inhibition of trypsin-like activity of 20S human proteasome assessed as Z-LRR-AMC hydrolysis at using Promega proteasome-Glo-3 substrate incubated for 15 mins by luminescence assay.

Structures are written as SMILES.

Usually IC50 stands for the concentration needed to halve the response being measured. For the compound `O=c1c2ccccc2c(-c2ccc(OCCCC[P+](c3ccccc3)(c3ccccc3)c3ccccc3)cc2)nn1CC1CC1`, the IC50 in test [1] amounted to 133 µM; in test [2], 589 µM.
For the compound `O=c1c2ccccc2c(-c2ccc(OCCCC[P+](c3ccccc3)(c3ccccc3)c3ccccc3)cc2)nn1CC1CCCCC1`, the IC50 in test [1] worked out at 50.4 µM; in test [2] it was 643 µM.
Take `CNc1ccc(-n2nc(-c3ccc(OCCCC[P+](c4ccccc4)(c4ccccc4)c4ccccc4)cc3)c3ccccc3c2=O)cc1`: the IC50 in test [1] was 131 µM; in test [2], 390 µM.
For the compound `CC(C)Cn1nc(-c2ccc(OCCCC[P+](c3ccccc3)(c3ccccc3)c3ccccc3)cc2)c2ccccc2c1=O`, the IC50 was 80.2 µM in test [1] and 276 µM in test [2].
Take `O=c1c2ccccc2c(-c2ccc(OCCCC[P+](c3ccccc3)(c3ccccc3)c3ccccc3)cc2)nn1-c1ccccc1`: the results for the IC50 in test [1] and in test [2] were 103 µM and 220 µM, respectively.
As to `O=c1c2ccccc2c(-c2ccc(OCCCC[P+](c3ccccc3)(c3ccccc3)c3ccccc3)cc2)nn1-c1cccs1`, the figures for the IC50 in test [1] and in test [2] were 70.5 µM and 558 µM, respectively.
